Laboratory results from patent US20260256762A1, “Aromatic Amide Derivative, And Preparation Method Therefor And Medical Use Thereof” (ZHEJIANG HISUN PHARMACEUTICAL CO., LTD., priority 2023, published 2026).

Columns and labels:
[1] = Pharmacokinetic test in mice after gavage administration; type: in vivo; details: ICR mice, male, Oral (10 mg/mL), plasma
Description: Control Compound AMG650, Compound 9;
ICR mice, male, 27.3-30.3 g, purchased from Charles River Experimental Animal Technology Co., Ltd.
A proper amount of pharmaceutical compound was weighed, a proper amount of DMA, CrEL and 5% GS were added in turn, then the system was mixed evenly by ultrasonic vortex to prepare a 1 mg/mL drug administration preparation, wherein DMA, CrEL and 5% GS=10:10:80 (v:v:v).
ICR mice, each compound injection group (9 mice in each group) to be determined, were fasted overnight, fed was given 4 hours after gavage administration (PO, the dosage of the compound was 10 mg/kg, the dosage volume was 10 mL/kg).
About 0.1 mL blood was collected from orbits 0.25 hours, 0.5 hours, 1 hour, 2 hours, 4 hours, 8 hours, 10 hours and 24 hours […] after drug administration, and a whole blood sample was placed in an anticoagulant tube including EDTA-K2. Blood samples were collected and then placed on ice, and plasma was separated by centrifugation (centrifugation condition: 1500 g, 10 minutes). The collected plasma was stored at −40° C. to −20° C. before analysis.
LC-MS/MS was used to determine the content of compounds to be tested in plasma of mice after gavage administration.

HT-29 cells = test: Inhibition of proliferation of HT-29 cells (CellTiter-Glo); type: cell-based; details: Homo sapiens, HT-29 cells (TP53 R273H mutation), 120 hours, read-out: IC50 inhibiting the proliferation of HT-29 cells
Description: (§1) The following method was used to determine the effect of the compound of the present invention on the proliferation of HT-29 cells. HT-29 cells (comprising TP53 R273H mutation) were purchased from the Cell Resource Center of Shanghai Institute of Life Sciences, Chinese Academy of Sciences, and cultured in a McCOY's 5A medium comprising 10% fetal bovine serum, 100 U penicillin and 100 μg/mL streptomycin. Cell viability was determined by Cell Titer-Glo® Luminescent Cell Viability Assay Kit (Promega, article No. G7573).
(§2) An experimental method was carried out according to steps provided in the kit manual, with details as follows: firstly, a test compound was dissolved in DMSO to prepare a 10 mM storage solution, and then diluted with a culture medium to prepare a test sample. A final concentration of the compound ranged from 1000 nM to 0.015 nM. Cells in a logarithmic growth phase were inoculated into a 96-mesh cell culture plate at a density of 1000 cells per mesh, and cultured overnight in a 5% CO2 incubator at 37° C., and then cultured for 120 hours after adding the test compound. After completion of cultivation, 50 uL CellTiter-Glo detection solution was added into each mesh, shook for 5 minutes, and stood for 10 minutes, and then a luminous value of each mesh of the sample was read by a microplate reader using Luminescence mode. Compared with a numerical value of a control group (0.3% DMSO), a percentage inhibition rate of the compound at each concentration point was calculated, and then an IC50 value of the compound inhibiting cell proliferation was obtained by a nonlinear regression analysis with a logarithmic-inhibition rate of the compound concentration in a GraphPad Prism 5 software, as shown in Table 2.

[2] = biological target: T1, recombinant human KIF18A enzyme (Homo sapiens, UniProt Q8NI77); test: Inhibition of KIF18A enzyme activity (ADP-Glo); type: biochemical; details: recombinant human KIF18A protein 100 nM, ATP 60 uM, read-out: IC50 inhibiting KIF18A enzyme activity
T1 construct: purchased Genscript
T1 sequence (Q8NI77 whole entry): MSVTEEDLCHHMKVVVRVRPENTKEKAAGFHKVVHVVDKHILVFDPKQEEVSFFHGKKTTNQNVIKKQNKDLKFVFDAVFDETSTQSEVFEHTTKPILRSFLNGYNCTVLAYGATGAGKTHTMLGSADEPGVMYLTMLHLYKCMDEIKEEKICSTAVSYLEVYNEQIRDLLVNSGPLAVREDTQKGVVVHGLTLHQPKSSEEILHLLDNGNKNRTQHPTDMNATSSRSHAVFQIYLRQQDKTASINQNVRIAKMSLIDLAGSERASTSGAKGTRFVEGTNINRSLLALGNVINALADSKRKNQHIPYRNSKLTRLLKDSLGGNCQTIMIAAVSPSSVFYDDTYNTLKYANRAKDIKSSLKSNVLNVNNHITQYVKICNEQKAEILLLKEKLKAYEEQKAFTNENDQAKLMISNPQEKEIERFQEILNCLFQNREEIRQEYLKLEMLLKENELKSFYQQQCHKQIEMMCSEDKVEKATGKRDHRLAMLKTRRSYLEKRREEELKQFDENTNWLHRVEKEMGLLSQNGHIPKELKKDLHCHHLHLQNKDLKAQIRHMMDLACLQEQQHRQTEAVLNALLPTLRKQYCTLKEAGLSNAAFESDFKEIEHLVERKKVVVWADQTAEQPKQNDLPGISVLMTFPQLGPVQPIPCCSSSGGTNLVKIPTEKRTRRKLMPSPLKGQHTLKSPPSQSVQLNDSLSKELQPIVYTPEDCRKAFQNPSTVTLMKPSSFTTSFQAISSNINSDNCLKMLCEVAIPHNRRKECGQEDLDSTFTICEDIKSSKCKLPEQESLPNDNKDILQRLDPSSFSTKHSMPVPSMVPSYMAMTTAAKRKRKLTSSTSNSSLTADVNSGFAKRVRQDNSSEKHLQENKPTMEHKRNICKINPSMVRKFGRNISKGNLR
T1 sequence (P68363 whole entry partner): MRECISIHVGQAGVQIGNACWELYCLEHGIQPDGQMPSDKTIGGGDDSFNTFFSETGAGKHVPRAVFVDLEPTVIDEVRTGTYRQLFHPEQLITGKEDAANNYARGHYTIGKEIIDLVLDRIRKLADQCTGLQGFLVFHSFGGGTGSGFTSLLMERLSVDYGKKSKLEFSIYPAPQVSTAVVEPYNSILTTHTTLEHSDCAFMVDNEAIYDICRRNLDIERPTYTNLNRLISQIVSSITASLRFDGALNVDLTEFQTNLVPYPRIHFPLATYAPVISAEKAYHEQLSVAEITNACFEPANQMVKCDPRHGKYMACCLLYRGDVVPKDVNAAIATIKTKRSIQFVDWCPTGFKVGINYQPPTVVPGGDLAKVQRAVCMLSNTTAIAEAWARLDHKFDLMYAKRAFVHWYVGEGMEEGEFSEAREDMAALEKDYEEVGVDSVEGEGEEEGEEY
T1 sequence (P07437 whole entry partner): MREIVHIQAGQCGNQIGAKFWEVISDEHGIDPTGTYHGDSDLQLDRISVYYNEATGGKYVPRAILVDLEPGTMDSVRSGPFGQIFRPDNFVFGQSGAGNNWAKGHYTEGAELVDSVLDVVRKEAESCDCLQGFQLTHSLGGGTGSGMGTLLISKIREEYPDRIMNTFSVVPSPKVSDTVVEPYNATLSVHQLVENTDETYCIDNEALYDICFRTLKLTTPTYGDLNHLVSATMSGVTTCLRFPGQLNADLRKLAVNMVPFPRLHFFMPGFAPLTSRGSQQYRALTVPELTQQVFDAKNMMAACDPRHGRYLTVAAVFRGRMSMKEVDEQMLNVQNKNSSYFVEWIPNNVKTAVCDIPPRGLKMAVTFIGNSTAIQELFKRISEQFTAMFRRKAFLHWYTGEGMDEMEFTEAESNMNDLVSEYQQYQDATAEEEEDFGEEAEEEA
Description: The following method was used to determine a degree of inhibition of the compound of the present invention on the activity of recombinant human KIF18A enzyme in vitro. The method used ADP-Glo™ Kinase Assay kit (article No. V9102) of Promega Company. For detailed experimental operation, please refer to the kit instructions.
Firstly, the compound and recombinant human KIF18A protein (final concentration of 100 nM, entrusted to Genscript for expression) were added into the mesh, and incubated at room temperature for 20 minutes. Then, ATP solution (component V915A from ADP-Glo™ Kinase Assay kit, final concentration of 60 uM) was added to the reaction solution, and the mixture was incubated at room temperature for 20 minutes. Subsequently, 5 μL ADP-Glo Reagent was added to the reaction system and the obtained system was incubated at troom temperature for 50 minutes. After that, 10 μL of Kinase Detection Reagent was added to the reaction system and the obtained system was incubated at room temperature for 30 minutes. After the completion of incubation, a chemiluminescence intensity value of each mesh was measured by a microplate reader using Luminescence mode.

OVCAR-3 cells = test: Inhibition of proliferation of OVCAR-3 cells (CellTiter-Glo); type: cell-based; details: Homo sapiens, OVCAR-3 cells (TP53 R248Q mutation), 72 hours, read-out: IC50 inhibiting the proliferation of OVCAR-3 cells
Description: as §1, with “OVCAR-3” for “HT-29”, “R248Q” for “R273H”, “RPMI 1640” for “McCOY's 5A”, “comprising10%” for “comprising 10%”
as §2, with “per mesh, cultured overnight” for “per mesh, and cultured overnight”, “cultured for 72 hours after” for “cultured for 120 hours after”, “Compared with the numerical value” for “Compared with a numerical value”, “in Table 1.” for “in Table 2.”

| IC50 (HT-29 cells) [nM] | IC50 [2] [nM] | IC50 (OVCAR-3 cells) [nM] | SMILES | also measured |
| --- | --- | --- | --- | --- |
| 27.1 | 185 | 4.5 | CCS(=O)(=O)Nc1ccc(C(=O)Nc2ccc(OC)c(-c3ccc(F)cn3)c2)c(N2CCC3(CC2)CC3)c1 [Example 16, 4-(ethylsulfonamido)-N-(3-(5-fluoropyridine-2-yl)-4-methoxyphenyl)-2-(6-azaspiro [2.5]octan-6-yl) benzamide] |  |
| 3.9 | 145 | 14.7 | CCS(=O)(=O)Nc1ccc(C(=O)Nc2ccc(OC)c(CN3CC(F)(F)C3)c2)c(N2CCC3(CC2)CC3)c1 [Example 11, N-(3-((3,3-difluoroazetidin-1-yl)methyl)-4-methoxyphenyl)-4-(ethylsulfonamido)-2-(6-azaspiro[2.5]octan-6-yl)benzamide] |  |
|  | 137 |  | CCS(=O)(=O)Nc1ccc(C(=O)Nc2ccc(OC(F)(F)F)c(N3CCC(F)(F)CC3)c2)c(N2CCC3(CC2)CC3)c1 [Example 13, N-(3-(4,4-difluoropiperidin-1-yl)-4-(trifluoromethoxy)phenyl)-4-(ethylsulfonamido)-2-(6-azaspiro[2.5]octan-6-yl)benzamide] |  |
| 14.5 | 97.8 | 17.4 | CCS(=O)(=O)Nc1ccc(C(=O)Nc2ccc(C#N)c(N3CCC(F)(F)CC3)c2)c(N2CCC3(CC2)CC3)c1 [Example 8, N-(4-cyano-3-(4,4-difluoropiperidin-1-yl)phenyl)-4-(ethylsulfonamido)-2-(6-azaspiro[2.5]octan-6-yl) benzamide] |  |

Second part, the compound before the results:

| SMILES | IC50 (HT-29 cells) [nM] | IC50 [2] [nM] | IC50 (OVCAR-3 cells) [nM] | also measured |
| --- | --- | --- | --- | --- |
| Cc1cc(NC(=O)c2ccc(NS(=O)(=O)CCO)cc2N2CCC3(CC2)CC3)nc(N2CCC(F)(F)CC2)n1 [AMG 650, reference compound] |  |  |  | Blood concentration Cmax [1]: 3050 ng/mL; Curve area AUC0-∞ [1]: 52500 ng·h/mL; Half-life period T½ [1]: 9.64 h |
| N#Cc1ccc(NC(=O)c2ccc(NS(=O)(=O)CCO)cc2N2CCC3(CC2)CC3)cc1N1CCC(F)(F)CC1 [Example 7, N-(4-cyano-3-(4,4-difluoropiperidin-1-yl)phenyl)-4-((2-hydroxyethyl)sulfonamido)-2-(6-azaspiro[2.5]octan-6-yl)benzamide] | 52.4 | 177 | 1.9 |  |
| CCS(=O)(=O)Nc1ccc(C(=O)Nc2ccc(OC)c(N3CCOCC3)c2)c(N2CCC3(CC2)CC3)c1 [Example 10, 4-(ethylsulfonamido)-N-(4-methoxy-3-morpholinophenyl)-2-(6-azaspiro[2.5]octan-6-yl)benzamide] | 42.8 |  | 7.5 |  |
| COc1ccc(NC(=O)c2ccc(NS(=O)(=O)CCO)cc2N2CCC3(CC2)CC3)cc1N1CCC(F)(F)CC1 [Example 6, N-(3-(4,4-difluoropiperidin-1-yl)-4-methoxyphenyl)-4-((2-hydroxyethyl)sulfonamido)-2-(6-azaspiro[2.5]octan-6-yl)benzamide] | 3.2 |  | 1.5 |  |
| CCS(=O)(=O)Nc1ccc(C(=O)Nc2ccc(OC)c(N3CCC(F)(F)CC3)c2)c(N2CCC3(CC2)CC3)c1 [Example 9, N-(3-(4,4-difluoropiperidin-1-yl)-4-methoxyphenyl)-4-(ethylsulfonamido)-2-(6-azaspiro[2.5]octan-6-yl) benzamide] | 3.3 |  | 1.5 | Cmax ([1]; mouse, 10 mg/kg, read-out: Blood concentration Cmax): 5270 ng/mL; AUC(0-inf) ([1]; mouse, 10 mg/kg, read-out: Curve area AUC0-∞): 52200 ng·h/mL; half-life ([1]; mouse, 10 mg/kg, read-out: Half-life period T½ (converted)): 5.9 h |
